Earlier results on three compounds are cited in patent US20250051323A1 (RICHTER GEDEON NYRT., priority 2021, published 2025).

Molecules are shown by their SMILES. Like-named read-outs stand apart in the source and are kept apart here.

The conditions of data set [1]: cited from earlier work.
The conditions of data set [2]: mouse stress models and aged mice; cited from earlier work.
For data set [3] the following is noted: rats, developmental models of schizophrenia; cited from earlier work.
The conditions of data set [4]: low dose; cited from earlier work.

With `Cc1ccc(-n2nnc(C)c2COc2cc3c(nn2)CNCC3)cn1` [Compound 44], in data set [1] (aged rats), the cognitive performance result is reported as “improved cognitive performance”.
Turning to `C#Cc1ccc2c(c1)C(c1ccccc1F)=N[C@H](C)c1c(C(=O)NC)ncn1-2` [MP-III-022], the behavioural effects entry in data set [2] is “procognitive, anxiolytic and antidepressant effects”. Also, the cognitive performance result in data set [1] (young rats) was “improved cognitive performance”. Further, the “pathological changes of locomotor activity” value in data set [3] was “attenuated pathological changes of locomotor activity”.
`O=C1CN=C(c2ccccc2Cl)c2cc([N+](=O)[O-])ccc2N1` [clonazepam]: the “symptoms in preclinical models of ASD” value in data set [4] is given as “ameliorate symptoms”.
